“Also recorded” adds a separate entry of the source. Where two headings read alike, the source gives them in different places.
Legend:
p110α-PI3K = target: T1, p110α-PI3K (Homo sapiens, UniProt P42336); assay: In vitro enzyme assay, p110α immunoprecipitated from platelet lysate (Biological Example 1); format: biochemical
T1 construct: The α and β isoforms of the PI3K were immunoprecipitated from a platelet lysate; from tissue; host or cells: washed platelets (lysate, immunoprecipitated with anti-p110α antibody)
T1 sequence (P42336 whole entry, canonical isoform): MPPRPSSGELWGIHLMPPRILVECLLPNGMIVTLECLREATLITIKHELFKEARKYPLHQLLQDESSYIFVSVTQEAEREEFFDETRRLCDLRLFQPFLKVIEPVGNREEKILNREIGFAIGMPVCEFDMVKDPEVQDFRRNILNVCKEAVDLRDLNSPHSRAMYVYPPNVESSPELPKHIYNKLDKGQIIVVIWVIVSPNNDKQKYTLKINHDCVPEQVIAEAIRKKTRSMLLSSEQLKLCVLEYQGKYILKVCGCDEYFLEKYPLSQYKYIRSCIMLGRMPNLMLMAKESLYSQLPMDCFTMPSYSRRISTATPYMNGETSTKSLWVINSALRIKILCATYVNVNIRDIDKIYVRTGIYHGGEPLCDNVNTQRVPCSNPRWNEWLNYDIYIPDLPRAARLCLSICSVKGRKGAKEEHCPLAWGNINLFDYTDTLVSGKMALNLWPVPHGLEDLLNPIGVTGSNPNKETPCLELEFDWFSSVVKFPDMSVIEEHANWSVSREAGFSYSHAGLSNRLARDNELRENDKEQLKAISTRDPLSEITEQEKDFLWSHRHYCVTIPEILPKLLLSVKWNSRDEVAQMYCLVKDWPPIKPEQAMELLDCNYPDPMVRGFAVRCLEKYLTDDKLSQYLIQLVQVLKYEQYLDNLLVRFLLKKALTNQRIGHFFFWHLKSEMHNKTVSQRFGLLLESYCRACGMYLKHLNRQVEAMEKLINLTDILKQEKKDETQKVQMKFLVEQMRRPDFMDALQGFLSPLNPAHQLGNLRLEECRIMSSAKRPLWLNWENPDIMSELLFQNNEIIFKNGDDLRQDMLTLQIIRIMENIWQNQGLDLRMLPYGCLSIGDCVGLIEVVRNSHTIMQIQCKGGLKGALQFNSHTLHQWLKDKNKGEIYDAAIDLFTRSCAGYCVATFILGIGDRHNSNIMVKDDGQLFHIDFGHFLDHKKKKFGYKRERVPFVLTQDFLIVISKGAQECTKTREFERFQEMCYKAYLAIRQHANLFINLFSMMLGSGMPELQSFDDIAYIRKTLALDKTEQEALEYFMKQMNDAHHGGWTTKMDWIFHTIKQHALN
T1 sequence (P27986 whole entry partner, canonical isoform): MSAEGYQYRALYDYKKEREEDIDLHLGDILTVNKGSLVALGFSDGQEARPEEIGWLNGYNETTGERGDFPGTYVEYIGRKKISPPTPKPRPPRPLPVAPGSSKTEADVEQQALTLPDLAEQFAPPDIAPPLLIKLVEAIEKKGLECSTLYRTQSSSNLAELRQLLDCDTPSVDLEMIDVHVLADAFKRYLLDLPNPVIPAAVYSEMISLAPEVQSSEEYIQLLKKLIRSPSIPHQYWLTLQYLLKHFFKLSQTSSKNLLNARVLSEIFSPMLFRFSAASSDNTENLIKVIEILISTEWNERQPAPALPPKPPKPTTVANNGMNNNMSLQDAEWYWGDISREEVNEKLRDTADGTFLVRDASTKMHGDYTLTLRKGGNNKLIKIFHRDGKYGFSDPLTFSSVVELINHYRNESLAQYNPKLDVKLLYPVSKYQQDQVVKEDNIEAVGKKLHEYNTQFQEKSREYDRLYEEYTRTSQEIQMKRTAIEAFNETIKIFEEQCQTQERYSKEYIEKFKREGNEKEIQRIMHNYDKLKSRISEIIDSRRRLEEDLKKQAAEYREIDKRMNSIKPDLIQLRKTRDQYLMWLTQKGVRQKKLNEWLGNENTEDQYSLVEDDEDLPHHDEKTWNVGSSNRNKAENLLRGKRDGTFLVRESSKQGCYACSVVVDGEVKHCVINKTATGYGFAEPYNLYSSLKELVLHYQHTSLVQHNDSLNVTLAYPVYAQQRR
Protocol: (§1) For each immunoprecipitation, 1 mg of lysate was incubated with an anti-p110α (1 μg), anti-p110β (1 μg), anti-p110δ (1 μg) or anti-PI4 kinase antibody (2-5 μg) and 50 μl of a 50% slurry of protein A beads overnight at 4° C. […] For PI4 kinase assays, protein A beads-immune complexes were also washed twice with lysis buffer, prior to two washes with 1× PI4 kinase assay buffer (20 mM Hepes, pH 7.5, 10 mM MgCl2, 0.3% Triton X-100) and the addition of other assay constituents, as described above. All reactions were terminated by the addition of 100 μl 1 M HCl, 200 μl choloroform/methanol (1:1) and 500 μl 2 M KCl and lipids extracted by centrifugation at 15,000×g for 2 minutes. The production of PI3 or PI4 kinase lipid products, PtdIns(3)P and PtdIns(4)P, were confirmed through TLC analysis. The lipid spots were then removed from the TLC plate and the level of radioactivity quantified to accurately determine the level of PtdIns(3)P/PtdIns(4)P production.

p110γ-PI3K = p110γ-PI3K (Homo sapiens, UniProt P48736); assay: In vitro enzyme assay, p110γ recombinant protein (Biological Example 1); format: biochemical
Sequence of p110γ-PI3K (P48736 whole entry, canonical isoform): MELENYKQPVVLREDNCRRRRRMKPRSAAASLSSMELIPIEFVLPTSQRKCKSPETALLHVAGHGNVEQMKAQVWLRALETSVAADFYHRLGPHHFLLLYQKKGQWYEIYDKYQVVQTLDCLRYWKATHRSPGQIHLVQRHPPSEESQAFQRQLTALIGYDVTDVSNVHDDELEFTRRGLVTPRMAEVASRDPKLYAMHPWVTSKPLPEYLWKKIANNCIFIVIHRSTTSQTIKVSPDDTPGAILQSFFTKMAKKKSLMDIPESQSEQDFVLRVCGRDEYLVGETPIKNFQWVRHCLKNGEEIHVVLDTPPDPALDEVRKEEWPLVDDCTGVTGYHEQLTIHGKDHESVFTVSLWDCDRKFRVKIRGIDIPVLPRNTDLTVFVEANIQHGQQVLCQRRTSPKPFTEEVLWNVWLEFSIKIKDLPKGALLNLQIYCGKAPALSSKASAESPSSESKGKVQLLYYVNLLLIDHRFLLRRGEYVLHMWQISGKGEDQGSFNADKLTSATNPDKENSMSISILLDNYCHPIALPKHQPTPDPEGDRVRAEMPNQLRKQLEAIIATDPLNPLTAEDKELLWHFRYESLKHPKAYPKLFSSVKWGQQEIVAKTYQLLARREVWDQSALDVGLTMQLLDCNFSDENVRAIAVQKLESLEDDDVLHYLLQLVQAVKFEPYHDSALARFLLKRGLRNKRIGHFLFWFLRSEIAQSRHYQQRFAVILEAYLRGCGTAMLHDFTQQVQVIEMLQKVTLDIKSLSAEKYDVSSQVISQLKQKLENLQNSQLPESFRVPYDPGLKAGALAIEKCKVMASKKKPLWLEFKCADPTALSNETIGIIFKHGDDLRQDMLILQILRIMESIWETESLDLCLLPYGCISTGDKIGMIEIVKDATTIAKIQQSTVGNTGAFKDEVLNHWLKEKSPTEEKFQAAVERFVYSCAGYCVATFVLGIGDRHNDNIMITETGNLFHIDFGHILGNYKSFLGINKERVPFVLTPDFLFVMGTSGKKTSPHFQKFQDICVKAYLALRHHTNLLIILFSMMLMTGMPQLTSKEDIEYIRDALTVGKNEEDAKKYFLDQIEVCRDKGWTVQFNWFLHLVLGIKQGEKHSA
From the text: Reactions were terminated and lipid products analysed as described above for the other PI 3-kinase isoforms assays.

p110δ-PI3K = target: T2, p110δ-PI3K (Homo sapiens, UniProt O00329); assay: In vitro enzyme assay, p110δ immunoprecipitated from platelet lysate (Biological Example 1); format: biochemical; conditions: read-out: IC50 (μM), p110δ-PI3K
T2 construct: from tissue; host or cells: washed platelets (lysate, immunoprecipitated with anti-p110δ antibody)
Protocol: as §1

PI4K = assay: PI4 kinase assay, immunoprecipitated from platelet lysate; format: biochemical
Protocol: as §1

EGF Receptor = EGF Receptor (Homo sapiens, UniProt P00533); assay: Tyrosine kinase assay by MDS Pharma Services (Panlabs); format: biochemical
HER2 Receptor = HER2 Receptor (Homo sapiens, UniProt P04626); assay: as above; format: biochemical
Sequence of HER2 Receptor (P04626 23-1255): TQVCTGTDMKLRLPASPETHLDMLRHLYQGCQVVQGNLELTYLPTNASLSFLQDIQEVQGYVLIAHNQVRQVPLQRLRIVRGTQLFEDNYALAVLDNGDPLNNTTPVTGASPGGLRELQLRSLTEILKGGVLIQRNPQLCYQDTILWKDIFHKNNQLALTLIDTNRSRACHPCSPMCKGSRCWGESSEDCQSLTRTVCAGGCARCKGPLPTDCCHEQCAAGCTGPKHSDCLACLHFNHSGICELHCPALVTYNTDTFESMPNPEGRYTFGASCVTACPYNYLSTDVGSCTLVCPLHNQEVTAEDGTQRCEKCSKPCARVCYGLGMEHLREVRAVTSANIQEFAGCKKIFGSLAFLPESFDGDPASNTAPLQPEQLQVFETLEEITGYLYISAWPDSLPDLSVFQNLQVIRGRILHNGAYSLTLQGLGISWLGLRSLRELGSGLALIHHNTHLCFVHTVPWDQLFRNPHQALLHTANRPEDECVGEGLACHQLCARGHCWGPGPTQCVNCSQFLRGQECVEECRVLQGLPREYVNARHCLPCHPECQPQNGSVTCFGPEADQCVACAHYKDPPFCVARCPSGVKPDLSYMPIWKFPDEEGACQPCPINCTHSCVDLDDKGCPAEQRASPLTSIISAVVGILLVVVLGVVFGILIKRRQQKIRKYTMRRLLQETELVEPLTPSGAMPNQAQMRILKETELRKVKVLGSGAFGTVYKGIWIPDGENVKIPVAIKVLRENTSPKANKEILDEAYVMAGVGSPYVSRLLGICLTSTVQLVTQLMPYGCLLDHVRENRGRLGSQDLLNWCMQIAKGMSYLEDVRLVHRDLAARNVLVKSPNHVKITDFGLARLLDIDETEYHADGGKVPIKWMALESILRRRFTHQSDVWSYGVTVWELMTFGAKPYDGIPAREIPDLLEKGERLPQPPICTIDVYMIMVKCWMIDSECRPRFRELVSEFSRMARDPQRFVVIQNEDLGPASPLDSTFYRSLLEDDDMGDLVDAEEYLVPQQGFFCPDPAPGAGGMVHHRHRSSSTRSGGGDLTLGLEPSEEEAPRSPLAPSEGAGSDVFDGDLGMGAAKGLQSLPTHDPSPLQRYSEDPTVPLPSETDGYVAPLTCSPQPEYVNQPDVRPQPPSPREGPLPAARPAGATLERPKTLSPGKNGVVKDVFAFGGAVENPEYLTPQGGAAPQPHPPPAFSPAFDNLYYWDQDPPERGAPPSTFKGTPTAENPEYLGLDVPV

Insulin Receptor = Insulin Receptor (Homo sapiens, UniProt P06213); assay: as above; format: biochemical
Casein Kinase 2 = Casein Kinase 2 (Homo sapiens, UniProt P68400); assay: Ser/Thr kinase assay by MDS Pharma Services (Panlabs); format: biochemical
Sequence of Casein Kinase 2 (P68400 whole entry): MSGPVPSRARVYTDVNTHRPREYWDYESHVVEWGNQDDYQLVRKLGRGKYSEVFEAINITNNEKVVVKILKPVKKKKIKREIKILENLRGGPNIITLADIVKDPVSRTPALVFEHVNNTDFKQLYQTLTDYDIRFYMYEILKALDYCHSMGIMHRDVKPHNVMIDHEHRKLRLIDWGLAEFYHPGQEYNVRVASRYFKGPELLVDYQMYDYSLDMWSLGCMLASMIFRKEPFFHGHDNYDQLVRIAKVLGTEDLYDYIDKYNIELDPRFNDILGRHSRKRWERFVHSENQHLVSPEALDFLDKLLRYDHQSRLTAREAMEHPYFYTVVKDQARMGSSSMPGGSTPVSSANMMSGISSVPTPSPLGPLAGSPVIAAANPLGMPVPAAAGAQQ

Cdk2/cyclin A = Cdk2/cyclin A (Homo sapiens, UniProt P24941); assay: as above; format: biochemical
PKC Non-selective = assay: as above; format: biochemical
CaMK = assay: as above; format: biochemical
washed platelets = assay: FACS analysis of integrin αIIbβ3 activation and P-selectin expression; format: cell-based; conditions: induced by thrombin, collagen and ADP; 0.5 μM TGX-221
Protocol: Agonists: Thrombin, 1 U/ml; ADP, […]; U46619, 1 μM; Soluble collagen 10 μg/ml.
Platelets were then stimulated with thrombin (1 U/ml), ADP ([…]), U46619 (1 μM) or collagen (10 μg/ml) for 20 min at room temperature prior to being fixed with 2% paraformaldehyde for 45 min at room temperature. Fixed platelets were washed twice with Tyrode's buffer, incubated with 1 μg/ml FITC-conjugated anti-mouse F(ab)2′ antibody for 15 min at room temperature, washed twice with Tyrode's buffer, resuspended to a final volume of 500 μl in Tyrode's buffer and analyzed by FACS.

[1] = test system: platelets on immobilized vWf; assay: In vitro flow studies: platelet calcium flux and adhesion on immobilized vWf; format: cell-based
Protocol: The use of an in vitro-flow based adhesion assay enables us to simultaneously analyze platelet adhesion dynamics and activation (by monitoring cytosolic calcium flux) on immobilized von Willebrand factor (vWf). Briefly, isolated platelets are perfused through vWf (100 μg/ml) coated microcapillary tubes and analysis of cytosolic calcium flux conducted in real-time by confocal microscopy.
Washed platelets (1.5×10^9) suspended in PWB were incubated with the calcium indicator dyes, Oregon Green 488 BAPTA-1, AM (1 μM) and Fura Red, AM (1.25 μM), for 30 min at 37° C. Platelets were washed twice with PWB prior to being resuspended in Tyrode's buffer containing 1 mM calcium.
For static adhesion assays, platelets were allowed to settle on the surface of vWf-coated coverslips for 30 min at 37° C. For flow assays, platelets were either perfused over a vWf-coated microcapillary tube at a constant shear rate of 600, 1800 or 10,000 s^−1 or allowed to settle on the surface of a vWf-coated microcapillary tube prior to being accelerated through a shear gradient of 10,000 s^−1 over a 1 s interval. Real time platelet calcium flux in individual platelets was monitored at 1 s intervals over the 30 min incubation period or at 0.586 s intervals for up to 175 s for static and flow-based assays, respectively.

[2] = test system: carotid artery occlusive thrombus formation in rats; assay: Electrolytic injury carotid model in rats; format: in vivo
Protocol: Treatments were given as an i.v. bolus at time−9 min (i.e. 5 min before applying the current). Error bars are average SEM from repeated-measures ANOVA. […] Error bars are ±1 SEM. Distal to the left carotid artery flow probe, a piece of Parafilm was inserted under the vessel for electrical isolation. The artery was placed onto a hook-shaped platinum electrode, after which, it was clamped distally to the electrode to occlude blood flow and a current of 7 mA was delivered for 4 min using a constant current unit (Model CCU1, Grass Instruments, Quincy, Mass., USA) connected to a Grass SD9 stimulator. The artery clamp was released immediately after this 4 min period. Blood flow was monitored for 60 min after the end of the stimulation. Thrombosis formation was defined by blood flow falling to zero.

rat tail bleeding time = assay: Tail bleeding studies in rats; format: in vivo
Protocol: Rats were anaesthetised with halothane in room air supplemented with O2. Tail bleeding time was measured 15 min before drug administration (−15), and 5 and 30 min after administration. For experiments involving pretreatment with aspirin and clopidogrel, tail bleeding time was also measured before the first gavage dose at −25 h. Incisions 5 mm long and 1 mm deep were made in the tail at each time point and bleeding was monitored every 30 sec until it had ceased (=tail bleeding time).

Cc1cc(C(C)Nc2ccccc2)c2nc(N3CCOCC3)cc(=O)n2c1 (racemic) [TGX-221, (±)-7-methyl-2-morpholin-4-yl-9-(1-phenylaminoethyl)-pyrido[1,2-a]pyrimidin-4-one]
IC50 (p110α-PI3K; Table I, read-out: inhibitory concentration, alpha): > 5 µM | IC50 (p110α-PI3K; read-out: IC50 (μM), p110α-PI3K): 5 µM | IC50 (p110γ-PI3K; Table I, read-out: inhibitory concentration, gamma): > 5 µM | IC50 (p110γ-PI3K; read-out: IC50 (μM), p110γ-PI3K): > 10 µM | IC50 (p110δ-PI3K): 0.1 µM | IC50 (PI4K): > 10 µM | inhibitory effect on PI4 kinase (PI4K; in words): minimal inhibitory effect | IC50 (EGF Receptor): > 10 µM | IC50 (HER2 Receptor): > 10 µM | IC50 (Insulin Receptor): > 10 µM | IC50 (Casein Kinase 2): > 10 µM | IC50 (Cdk2/cyclin A): > 10 µM | IC50 (PKC Non-selective): > 10 µM | IC50 (CaMK): > 10 µM | integrin αIIbβ3 activation (PAC-1 binding) (washed platelets): unaffected | γ-independent GPIb calcium signalling ([1]; 0.5 μM): did not inhibit | platelet responses to accelerated shear ([1]; vWf matrix, shear rate gradient up to 10,000 s^−1 over 1 s): Eliminates Platelet Responses to Accelerated Shear | baseline arterial blood pressure, heart rate or carotid artery blood flow ([2]; both the Folts and electrolytic studies): no effect | occlusive thrombus formation ([2]; rats, 2 mg/kg in PG 5 minutes before injury, in words, 90% occlusion rate in vehicle-treated rats): completely prevented | carotid blood flow volume over the 60 min post-injury period ([2]; rats, 2 mg/kg, in words): preserving; also recorded: preserved | bleeding time (rat tail bleeding time; TGX-221 2 mg/kg i.v. in combination with either clopidogrel or aspirin): did not affect bleeding time | prolonged bleeding time caused by co-administered agents (rat tail bleeding time; TGX-221 2 mg/kg i.v. with aspirin 200 mg/kg p.o.+heparin 100 U/kg i.v.): did not exacerbate | prolonged bleeding time caused by co-administered agents (rat tail bleeding time; TGX-221 2 mg/kg i.v. with clopidogrel 10 mg/kg p.o.+heparin 100 U/kg i.v.): did not exacerbate | rat tail bleeding time (rat tail bleeding time; TGX-221 20 mg/kg i.v. alone): unaffected | rat tail bleeding time (rat tail bleeding time; TGX-221 20 mg/kg i.v. with heparin 100 U/kg i.v.): unaffected | bleeding time (rat tail bleeding time; administered at >20 fold the minimum therapeutic concentration): did not increase bleeding time | normal haemostasis as assessed by tail or ear bleeding times (rat tail bleeding time; in words): did not adversely impact

Reference: patent US7598377B2, “Inhibition of phosphoinositide 3-kinase β” (AstraZeneca AB, priority 2002, dated 2009)
